According to the supplement of paper PMC11562712:

Assay: first-order primary biodegradation rate constant k (sorption-corrected, fDis-corrected) (d-1); higher = faster biodegradation
Method: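 Modified OECD 309 water-sediment test. River water plus sieved sediment (50 g wet solid/L) from European river segments (DE, CH, ES, EL) was spiked with a mixture of 129 compounds at 1 ug/L each and incubated in the dark at river temperature for 10 days. The water phase was analysed by UHPLC-Orbitrap-MS. The first-order primary biodegradation rate constant k (d-1) is k_observed, corrected for dissipation in sterile sorption controls and divided by the dissolved fraction fDis; it was fitted over 3 replicate incubations. Invalid fits (p > 0.05, n < 5, not available, concentration increase) are excluded.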

[1] = river segment: Germany (DE) H_Contam, incubation temperature 24 °C
[2] = river segment: Germany (DE) T_Contam, incubation temperature 24 °C
[3] = river segment: Germany (DE) T_Pris, incubation temperature 24 °C
[4] = river segment: Greece (EL) A_Contam, incubation temperature 19 °C
[5] = river segment: Greece (EL) G_Pris, incubation temperature 19 °C
[6] = river segment: Spain (ES) B_Contam, incubation temperature 24 °C
[7] = river segment: Spain (ES) C_Contam, incubation temperature 24 °C
[8] = river segment: Spain (ES) L_Contam, incubation temperature 24 °C
[9] = river segment: Switzerland (CH) R_Contam, incubation temperature 17 °C
[10] = river segment: Greece (EL) G_Contam, incubation temperature 19 °C
[11] = river segment: Switzerland (CH) U_Contam, incubation temperature 17 °C
[12] = river segment: Greece (EL) L_Contam, incubation temperature 19 °C
[13] = river segment: Switzerland (CH) U_Pris, incubation temperature 17 °C
[14] = river segment: Switzerland (CH) C_Contam, incubation temperature 17 °C
[15] = river segment: Spain (ES) F_Pris_Salt, incubation temperature 24 °C

| Structure (SMILES) | first-order primary biodegradation rate constant k [1] | first-order primary biodegradation rate constant k [2] | first-order primary biodegradation rate constant k [3] | first-order primary biodegradation rate constant k [4] | first-order primary biodegradation rate constant k [5] | first-order primary biodegradation rate constant k [6] | first-order primary biodegradation rate constant k [7] | first-order primary biodegradation rate constant k [8] | first-order primary biodegradation rate constant k [9] | first-order primary biodegradation rate constant k [10] | first-order primary biodegradation rate constant k [11] | first-order primary biodegradation rate constant k [12] | first-order primary biodegradation rate constant k [13] | first-order primary biodegradation rate constant k [14] | first-order primary biodegradation rate constant k [15] |
| --- | --- | --- | --- | --- | --- | --- | --- | --- | --- | --- | --- | --- | --- | --- | --- |
| CC[C@@H](C(N)=O)N1CCCC1=O [Levetiracetam] | 0.229 | 0.49 | 0.0839 | 0.382 | 0.188 | 0.958 | 0.236 | 0.262 | 0.35 |  |  |  |  |  |  |
| CC(=O)Nc1ccc(O)cc1 [Paracetamol] | 2.34 | 3.16 |  | 3.21 | 0.888 | 1.24 | 1.28 | 2.82 | 3.87 | 3.16 | 2.14 |  |  |  |  |
| Cc1cc(C)nc(NS(=O)(=O)c2ccc(N)cc2)n1 [Sulfamethazine] | 0.11 | 0.365 |  | 0.0988 | 0.729 |  |  | 0.9 |  | 0.0667 |  | 0.357 | 0.0819 |  |  |
| C/C(=N\C#N)N(C)Cc1ccc(Cl)nc1 [Acetamiprid] | 0.0195 | 0.217 | 0.0162 | 0.097 | 0.125 |  | 0.00952 | 0.0364 | 0.139 | 0.0201 | 0.106 | 0.0691 | 0.386 | 0.031 |  |
| N#Cc1cc(Br)c(O)c(Br)c1 [Bromoxynil] |  | 0.133 |  |  |  |  |  | 0.0939 |  |  |  | 0.0249 | 0.0852 |  |  |
| Cc1cc(O)cc(C)c1Cl [4-Chloro-3,5-dimethylphenol] | 1.4 | 2.27 | 1.68 | 2.03 | 3.52 |  | 2.41 | 4.19 |  | 0.169 |  | 3.5 | 4.31 |  | 0.228 |
| C=CCOc1ccccc1OCC(O)CNC(C)C (configuration not stated) [Oxprenolol] | 0.0433 | 1.9 | 0.0369 |  | 0.111 | 0.107 |  | 0.142 | 0.0926 | 0.0189 | 0.0534 | 0.756 | 0.0473 | 0.0127 | 0.426 |
| CCOC(=O)C1CC(=O)C(=C(O)C2CC2)C(=O)C1 (configuration not stated) [Trinexapac-ethyl] | 0.0565 | 0.461 | 0.0811 | 0.435 | 0.252 | 0.337 | 0.0822 | 0.373 | 0.149 | 0.0205 | 0.178 | 0.256 | 0.195 | 0.0493 |  |
| CC(C)(C)C(=O)C(Oc1ccc(Cl)cc1)n1ccnc1 (configuration not stated) [Climbazole] |  | 0.282 |  |  |  | 0.421 | 0.0396 |  |  | 9.42 | 1.6 |  | 0.68 | 0.0523 | 0.0487 |
| C#CCN(C)Cc1ccccc1 [Pargyline] | 0.16 | 0.425 | 0.199 | 0.519 |  | 0.0362 | 0.113 |  | 0.4 | 0.773 | 0.596 | 0.513 | 0.768 | 0.22 | 0.179 |
| Cc1ccc(C)c(OCCCC(C)(C)C(=O)O)c1 [Gemfibrozil] | 0.143 | 0.278 | 0.133 | 0.37 | 0.227 | 0.371 | 0.26 | 0.327 |  |  |  | 0.152 | 1.01 | 0.237 |  |
| CC(C)(Oc1ccc(Cl)cc1)C(=O)O [Clofibric acid] | 0.0901 | 0.0769 | 0.0208 | 0.0823 | 0.0358 | 0.0306 | 0.0243 | 0.11 | 0.0581 |  | 0.034 | 0.0249 | 0.0607 | 0.0409 |  |
| CCCOC(=O)c1ccc(O)cc1 [Propylparaben] | 2.67 |  | 1.42 |  |  |  | 2.24 | 4.24 |  |  |  |  |  |  | 0.275 |
| CCCCCCCCCCCCN [Dodecylamine] |  |  |  |  |  |  |  |  |  | 7.74 |  |  |  |  |  |
| CC(C)N(C(=O)CCl)c1ccccc1 [Propachlor] | 0.302 | 0.812 | 0.308 | 0.575 |  | 1.07 | 0.218 | 0.809 | 0.429 | 0.271 | 0.649 | 0.985 | 0.552 | 0.33 | 0.212 |
